How the values were obtained:
Assay in all cases: relative viability (nuclei count vs DMSO), 5 days (fraction); higher = more cells survive
Salubrinal + AZD7762 = compound: O=C(/C=C/c1ccccc1)NC(NC(=S)Nc1cccc2cccnc12)C(Cl)(Cl)Cl [Salubrinal] + NC(=O)Nc1cc(-c2cccc(F)c2)sc1C(=O)N[C@H]1CCCNC1 [AZD7762] (partner 0.2 µM)
Summary of the method: (§1)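 Dosing by pin tool came one day after lung cancer cell lines were seeded in 1536-well plates, using either one drug or a fixed anchor-drug dose plus five library-drug doses (not always all listed) in √10 steps. After 5 days, nuclei were counted on 4× images. Relative viability is treated-well nuclei count divided by vehicle-well nuclei count, and values are medians of duplicate plates.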

Salubrinal + Pictilisib = compound: O=C(/C=C/c1ccccc1)NC(NC(=S)Nc1cccc2cccnc12)C(Cl)(Cl)Cl [Salubrinal] + CS(=O)(=O)N1CCN(Cc2cc3nc(-c4cccc5[nH]ncc45)nc(N4CCOCC4)c3s2)CC1 [Pictilisib] (partner 1 µM)
Summary of the method: as §1

[1] = compound: Cc1ccc2nc(NCCN)c3ncc(C)n3c2c1 + O=C(c1cc(Cc2n[nH]c(=O)c3ccccc23)ccc1F)N1CCN(C(=O)C2CC2)CC1 [Olaparib] (partner 8 µM)
Summary of the method: as §1

[2] = compound: Cc1ccc2nc(NCCN)c3ncc(C)n3c2c1 + CCNC(=O)c1noc(-c2cc(C(C)C)c(O)cc2O)c1-c1ccc(CN2CCOCC2)cc1 [Luminespib] (partner 0.01 µM)
Summary of the method: as §1

Cell Line | relative viability (Salubrinal + AZD7762; first compound 0.08 µM) | relative viability (Salubrinal + AZD7762; first compound 0.253 µM) | relative viability (Salubrinal + AZD7762; first compound 0.8 µM) | relative viability (Salubrinal + AZD7762; first compound 2.53 µM) | relative viability (Salubrinal + AZD7762; first compound 8 µM) | relative viability (Salubrinal + Pictilisib; first compound 0.08 µM) | relative viability (Salubrinal + Pictilisib; first compound 0.253 µM) | relative viability (Salubrinal + Pictilisib; first compound 0.8 µM) | relative viability (Salubrinal + Pictilisib; first compound 2.53 µM) | relative viability (Salubrinal + Pictilisib; first compound 8 µM) | relative viability ([1]; first compound 0.04 µM) | relative viability ([1]; first compound 0.1265 µM) | relative viability ([1]; first compound 0.4 µM) | relative viability ([1]; first compound 1.265 µM) | relative viability ([1]; first compound 4 µM) | relative viability ([2]; first compound 0.04 µM) | relative viability ([2]; first compound 0.1265 µM) | relative viability ([2]; first compound 0.4 µM) | relative viability ([2]; first compound 1.265 µM) | relative viability ([2]; first compound 4 µM)
NCI-H460 | 0.627 | 0.546 | 0.722 | 0.711 | 0.552 | 0.261 | 0.296 | 0.398 | 0.482 | 0.518 | 0.481 | 0.421 | 0.443 | 0.342 | 0.273 | 0.0414 | 0.0267 | 0.0351 | 0.0331 | 0.0182
HCC-15 | 1.4 | 1.22 | 1.28 | 1.25 | 1.25 | 0.77 | 0.643 | 0.837 | 0.728 | 0.759 | 0.648 | 0.752 | 0.7 | 0.75 | 0.622 | 0.463 | 0.239 | 0.258 | 0.373 | 0.16
ABC-1 | 0.97 | 0.998 | 0.948 | 0.898 | 0.825 | 0.705 | 0.92 | 0.812 | 0.727 | 0.588 | 0.781 | 0.785 | 0.639 | 0.691 | 1.04 | 0.507 | 0.719 | – | 0.52 | 0.41
LCLC-103H | 0.856 | 0.699 | 0.806 | 0.815 | 0.701 | 0.591 | 0.599 | 0.743 | 0.562 | 0.535 | 0.752 | 0.748 | 0.778 | 0.743 | 0.739 | 0.887 | 0.927 | 0.931 | 0.925 | 0.858
NCI-H441 | 1.28 | 0.87 | 1.03 | 0.905 | 0.85 | 0.479 | 0.432 | 0.705 | 0.534 | 0.294 | 0.631 | 0.384 | 0.622 | 0.646 | 0.549 | 0.285 | 0.482 | 0.312 | 0.465 | 0.322
EPLC-272H | 0.229 | 0.191 | 0.304 | 0.229 | 0.156 | 0.293 | 0.282 | 0.355 | 0.33 | 0.24 | 0.869 | 0.814 | 0.98 | 0.686 | 0.778 | 0.272 | 0.253 | 0.196 | 0.299 | 0.159

— the supplement of paper PMC10307832
